Assay results from PubChem BioAssay (NCI).
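A five-concentration, 48-hour dose response in 96-well plates underlies each endpoint, interpolated linearly between surrounding concentrations. Definition used: TGI = concentration required for complete inhibition of growth.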

Columns and labels:
Assay in all cases: growth of human tumour cells (NCI), 48 h
786-0 renal = system: 786-0 renal
A498 renal = system: A498 renal
A549 NSCLC = system: A549 NSCLC
ACHN renal = system: ACHN renal
CAKI-1 renal = system: CAKI-1 renal
COLO 205 colon = system: COLO 205 colon
HS 578T breast = system: HS 578T breast
HT29 colon = system: HT29 colon
KM12 colon = system: KM12 colon
LOX IMVI melanoma = system: LOX IMVI melanoma
MALME-3M melanoma = system: MALME-3M melanoma
MDA-N = system: MDA-N
OVCAR-5 ovarian = system: OVCAR-5 ovarian
SF-268 CNS = system: SF-268 CNS
SF-295 CNS = system: SF-295 CNS
SF-539 CNS = system: SF-539 CNS
SK-MEL-5 melanoma = system: SK-MEL-5 melanoma
T-47D breast = system: T-47D breast
TK-10 renal = system: TK-10 renal

SMILES | TGI (786-0 renal) | TGI (A498 renal) | TGI (A549 NSCLC) | TGI (ACHN renal) | TGI (CAKI-1 renal) | TGI (COLO 205 colon) | TGI (HS 578T breast) | TGI (HT29 colon) | TGI (KM12 colon) | TGI (LOX IMVI melanoma) | TGI (MALME-3M melanoma) | TGI (MDA-N) | TGI (OVCAR-5 ovarian) | TGI (SF-268 CNS) | TGI (SF-295 CNS) | TGI (SF-539 CNS) | TGI (SK-MEL-5 melanoma) | TGI (T-47D breast) | TGI (TK-10 renal)
COC(=O)C1C2OC(C)(C)OC2CN1S(=O)(=O)c1ccc(C)cc1 (centres undefined) | > 100 µM | > 100 µM | > 100 µM | > 100 µM | > 100 µM | > 100 µM | > 100 µM | > 100 µM | > 100 µM | > 100 µM | > 100 µM | > 100 µM | > 100 µM | > 100 µM | > 100 µM | > 100 µM | > 100 µM | > 100 µM | > 100 µM
O=C1c2c(Br)sc(Br)c2C(NC(=O)C(F)(F)F)C1O (centres undefined) | 36.7 µM | > 100 µM | 58.5 µM | 84.2 µM | 31.4 µM | 33.4 µM | > 100 µM | 53.6 µM | 91.6 µM | 44.5 µM | 43.7 µM | 40.4 µM | 39.6 µM | > 100 µM | 35.7 µM | 32.1 µM | 36 µM | 55.9 µM | > 100 µM
O=C(Nc1ccc(Cl)cc1)c1cc(S(=O)(=O)Nc2n[nH]c(Nc3ccc4ccccc4c3)n2)c(SSc2cc(Cl)c(C(=O)Nc3ccc(Cl)cc3)cc2S(=O)(=O)Nc2n[nH]c(Nc3ccc4ccccc4c3)n2)cc1Cl | > 94.3 µM | 52.1 µM | > 100 µM | 53.9 µM | 38 µM | 38.8 µM | > 100 µM | 38.2 µM | 50.4 µM | 37.8 µM | 43 µM | > 84.2 µM | 50.5 µM | > 100 µM | 58.3 µM | 60.5 µM | 40.6 µM | 43.6 µM | 60.8 µM
COc1cc(C(=O)NNC(=O)c2cc(Br)ccc2NC(=O)c2cccs2)cc(OC)c1OC | 45.4 µM | 55 µM | 61.3 µM | 43.6 µM | > 100 µM | 25.5 µM | 62.1 µM | 41.1 µM | > 100 µM | 37.1 µM | 86.1 µM | 74.9 µM | 45.3 µM | 29.3 µM | 48.9 µM | 30 µM | 26.7 µM | > 100 µM | > 100 µM
COc1nn(Cc2ccccn2)c2ccc([N+](=O)[O-])cc12 | > 100 µM | > 100 µM | > 100 µM | > 100 µM | > 100 µM | > 100 µM | 88 µM | > 100 µM | > 100 µM | > 100 µM | > 100 µM | 95.5 µM | > 100 µM | > 100 µM | > 100 µM | > 100 µM | > 100 µM | > 100 µM | > 100 µM
CCSc1nnc(Sc2c3ccccc3nc3ccccc23)s1 | 7.54 µM | > 62.4 µM | > 100 µM | 17.7 µM | 15.5 µM | 7.01 µM | > 100 µM | > 55.6 µM | 77.8 µM | 23.7 µM | > 100 µM | 25.1 µM | 43.4 µM | > 56.4 µM | > 100 µM | 21.9 µM | 38.6 µM | > 44.2 µM | 15.8 µM
